Reference: US20090220997A1, “Stimulating G Protein-Coupled Receptors” (MAYO FOUNDATION FOR MEDICAL EDUCATION AND RESEARCH, priority 2005, published 2009)
Bridge positions count the residues as written; N and C are the ends. Square brackets hold non-standard residues; d marks the D form. Ends that are not written are not given here. Dap = NC[C@H](N)C(=O)O

Experiments:
calcitonin receptor = biological target: T1, calcitonin receptor (Homo sapiens, UniProt P30988); assay: cAMP accumulation in cells expressing the calcitonin receptor; format: cell-based
T1 sequence (P30988 25-474): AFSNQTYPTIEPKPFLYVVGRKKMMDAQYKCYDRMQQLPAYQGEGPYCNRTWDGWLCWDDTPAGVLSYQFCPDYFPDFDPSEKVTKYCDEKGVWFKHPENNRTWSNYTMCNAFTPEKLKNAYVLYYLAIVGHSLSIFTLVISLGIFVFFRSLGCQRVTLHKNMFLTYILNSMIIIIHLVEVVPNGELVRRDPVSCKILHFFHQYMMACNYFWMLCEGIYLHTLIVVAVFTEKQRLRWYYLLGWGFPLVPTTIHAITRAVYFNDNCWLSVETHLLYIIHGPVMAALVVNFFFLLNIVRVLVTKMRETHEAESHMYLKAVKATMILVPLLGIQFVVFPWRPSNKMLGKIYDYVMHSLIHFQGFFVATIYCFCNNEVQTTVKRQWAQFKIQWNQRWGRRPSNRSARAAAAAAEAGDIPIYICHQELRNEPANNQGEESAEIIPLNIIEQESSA
Text: (§1) FIG. 4 contains a series of graphs plotting cAMP accumulation versus concentration of amino-terminal polypeptides from the calcitonin (residues 73-80; SEQ ID NO:6) and VPAC1 (residues 51-71; SEQ ID NO:4) receptors that were used to stimulate cells expressing Class B receptors.
(§2) Polypeptides representing the analogous region of the amino terminus of the Class B G protein-coupled calcitonin and VPAC1 receptors (FIG. 1) were also synthesized. […] The agonist activity of these endogenous polypeptides was not limited to the corresponding receptors. The polypeptides were also active at other structurally-related family members (FIG. 4).

Class B receptors = assay: cAMP accumulation in cells expressing Class B receptors; format: cell-based; settings: receptors other than the corresponding receptor
Text: as §1
(§3) FIG. 6 contains a series of graphs plotting cAMP accumulation versus concentration of the WDN tripeptide or amino-terminal polypeptides from the VPAC1 receptor (residues 51-71; SEQ ID NO:4), the calcitonin receptor (residues 73-80; SEQ ID NO:6), and the GLP1R (residues 63-70; SEQ ID NO:22) that were used to stimulate cells expressing Class B receptors as indicated.
as §2
(§4) Additional experiments were performed and curves were regenerated (FIG. 6), as described herein and as described elsewhere (Dong et al., Mol. Pharmacol., 70(1):206-13 (2006)). […] Each polypeptide used to generate the data presented in FIG. 6 was a cyclic polypeptide, except for the VPAC1(51-71) polypeptide. […]

secretin receptor = biological target: T2, secretin receptor (Rattus norvegicus, UniProt P23811); assay: cAMP accumulation in CHO cells expressing the secretin receptor (CHO-SecR); format: cell-based; settings: for agonist activity (stimulation of cAMP accumulation): 30 min at 37° C.; for potency (cAMP accumulation), relative comparison: secretin receptor (SecR)
T2 construct: expressed in transfected cells; host or cells: CHO (CHO-SecR)
T2 sequence (P23811 26-449): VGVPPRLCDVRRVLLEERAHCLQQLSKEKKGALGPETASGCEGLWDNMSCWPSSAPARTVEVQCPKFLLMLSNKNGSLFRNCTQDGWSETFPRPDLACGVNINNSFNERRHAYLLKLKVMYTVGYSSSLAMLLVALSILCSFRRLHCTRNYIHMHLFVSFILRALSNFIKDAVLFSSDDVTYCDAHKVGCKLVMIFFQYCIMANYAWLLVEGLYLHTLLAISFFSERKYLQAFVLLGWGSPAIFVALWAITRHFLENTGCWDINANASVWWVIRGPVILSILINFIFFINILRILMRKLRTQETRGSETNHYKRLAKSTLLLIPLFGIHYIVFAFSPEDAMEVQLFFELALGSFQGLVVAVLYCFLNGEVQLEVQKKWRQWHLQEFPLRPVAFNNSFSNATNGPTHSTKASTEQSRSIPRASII
Text: (§5) FIG. 2 contains a series of graphs plotting accumulation of cAMP versus concentration of polypeptide used to stimulate cells. Presented in panel A are curves of cAMP accumulation in Chinese hamster ovary cells expressing the secretin receptor (CHO-SecR), and in the cells of the parental CHO cell line not expressing the secretin receptor, in response to increasing concentrations of secretin or a synthetic polypeptide (SEQ ID NO:1) corresponding to the region of the amino terminus of the secretin receptor between the first and third conserved cysteine residues, Cys^24 and Cys^53 (corresponding to residues 46 to 75 of GenBank Accession Number AAH81781). Presented in panel B are curves of cAMP accumulation in CHO-SecR cells in response to increasing concentrations of the indicated pentapeptide (SEQ ID NO:3), tripeptides, or dipeptides. Presented in panel C are curves of cAMP accumulation in CHO-SecR cells in response to increasing concentrations of a linear tripeptide, cyclic tripeptides, or a myristolated cyclic tripeptide. Adherent cells that were 75 percent confluent were stimulated with the polypeptide in Krebs-Ringers-HEPES medium for 30 min at 37° C. Cellular cAMP was quantified as previously reported (Holtmann et al., J. Biol. Chem. 270, 14394 (1995)). Values represent means±S.E.M. of data from a minimum of three independent assays performed in duplicate. Myr indicates myristoylated cyclic tripeptide.
It was determined whether a synthetic polypeptide corresponding to the region of the secretin receptor amino terminus between residues 24 and 53 (FIG. 1), which shares no homology with any part of the natural agonist polypeptide, could act as an endogenous agonist ligand. […] The cAMP response was dependent on the concentration of the polypeptide. […] The polypeptide had no effect on cAMP levels in the parental CHO cell line, even at concentrations as high as 100 μM (FIG. 2A).

human GLP1R = human GLP1R (Homo sapiens, UniProt P43220); assay: cAMP accumulation in cells expressing the GLP1R; format: cell-based
Chain of human GLP1R (P43220 24-463 L260F/A316G): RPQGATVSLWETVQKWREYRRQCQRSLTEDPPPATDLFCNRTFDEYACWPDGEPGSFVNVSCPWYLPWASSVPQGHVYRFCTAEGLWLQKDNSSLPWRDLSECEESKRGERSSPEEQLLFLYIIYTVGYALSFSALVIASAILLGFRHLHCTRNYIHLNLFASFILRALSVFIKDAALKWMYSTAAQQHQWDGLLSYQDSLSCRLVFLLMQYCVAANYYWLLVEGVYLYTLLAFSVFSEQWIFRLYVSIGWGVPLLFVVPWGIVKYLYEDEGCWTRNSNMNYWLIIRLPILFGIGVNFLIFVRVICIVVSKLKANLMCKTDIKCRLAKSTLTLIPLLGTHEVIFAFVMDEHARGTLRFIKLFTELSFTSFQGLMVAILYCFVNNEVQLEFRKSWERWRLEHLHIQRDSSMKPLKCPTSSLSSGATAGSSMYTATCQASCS
Description: as §3
Additional experiments were performed and curves were regenerated (FIG. 6), as described herein and as described elsewhere (Dong et al., Mol. Pharmacol., 70(1):206-13 (2006)). […] Each polypeptide used to generate the data presented in FIG. 6 was a cyclic polypeptide, except for the VPAC1(51-71) polypeptide. Linear versions of each polypeptide were also tested and found to behave in a similar manner as the corresponding cyclic polypeptides, with similar potencies and efficacies.

[1] = test system: parental CHO cell line not expressing the secretin receptor; assay: cAMP accumulation in parental CHO cell line; format: cell-based, Chinese hamster; settings: concentrations as high as 100 μM
Text: as §5, with “Presented in panel C are curves of cAMP accumulation in CHO-SecR cells in response to increasing concentrations of a linear tripeptide, cyclic tripeptides, or a myristolated cyclic tripeptide. Adherent cells that were 75 percent confluent were stimulated with the polypeptide in Krebs-Ringers-HEPES medium for 30 min at 37° C.” left out, “Values represent means±S.E.M. of data from a minimum of three independent assays performed in duplicate. Myr indicates myristoylated cyclic tripeptide.” left out
It was determined whether a synthetic polypeptide corresponding to the region of the secretin receptor amino terminus between residues 24 and 53 (FIG. 1), which shares no homology with any part of the natural agonist polypeptide, could act as an endogenous agonist ligand. […]

[2] = test system: Class A G protein-coupled cholecystokinin receptor; assay: cAMP levels in CHO cell lines expressing cholecystokinin receptor; format: cell-based; settings: CHO cell lines expressing high concentrations of cholecystokinin receptor
VPAC1 receptor = biological target: T3, VPAC1 receptor (Rattus norvegicus, UniProt P30083); assay: cAMP accumulation in cells expressing the VPAC1 receptor; format: cell-based
T3 sequence (P30083 31-459): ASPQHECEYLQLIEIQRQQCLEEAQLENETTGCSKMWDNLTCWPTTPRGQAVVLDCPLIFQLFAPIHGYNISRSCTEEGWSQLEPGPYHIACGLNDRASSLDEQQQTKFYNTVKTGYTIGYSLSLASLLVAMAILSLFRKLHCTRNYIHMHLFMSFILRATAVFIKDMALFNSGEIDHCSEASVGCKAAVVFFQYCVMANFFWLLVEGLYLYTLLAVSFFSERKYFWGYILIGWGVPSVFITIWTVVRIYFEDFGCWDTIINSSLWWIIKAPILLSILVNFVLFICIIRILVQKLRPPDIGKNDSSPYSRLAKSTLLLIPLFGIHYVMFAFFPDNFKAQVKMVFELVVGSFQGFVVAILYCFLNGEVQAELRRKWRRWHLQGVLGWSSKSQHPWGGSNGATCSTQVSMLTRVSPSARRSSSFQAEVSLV
Text: as §1, §3, §2, §4

Question: For “CTR(73-80): polypeptide corresponding to amino acids 73 to 80 of the human calcitonin receptor ([Dap]NRTWDGWLD; not fully specified (bridges); listed as Homo sapiens)”, which “agonist activity (cAMP accumulation)” value (calcitonin receptor) is on record?
Answer: low potency agonist activity

Question: What about the “activity at other structurally-related family members” value (Class B receptors) of the same substance?
Answer: also active

Question: How did the “agonist activity (stimulation of cAMP accumulation)” value (secretin receptor; CHO-SecR cells) turn out when “tryptophan-aspartate-asparagine [linear tripeptide]” was run?
Answer: stimulated cAMP accumulation

Question: What does the source list for “cyclic WDN (tryptophan-aspartate-asparagine) tripeptide”?
Answer: efficacy (cAMP accumulation) (secretin receptor; CHO-SecR cells): maintained full efficacy; potency (cAMP accumulation), relative comparison (secretin receptor): enhanced relative to that of the linear polypeptide; agonist activity (cAMP accumulation) (human GLP1R): active as agonists

Question: “leucine-tryptophan-aspartate-asparagine-methionine [LWDNM]” was tested. Which “agonist activity (stimulation of cAMP accumulation)” value (secretin receptor; CHO-SecR cells) did it give?
Answer: Agonist activity was maintained

Question: “SecR(24-53): polypeptide corresponding to amino acids 46 to 75 of the rat secretin receptor (SEQ ID NO:1) ([Dap]CLQQLSKEKKGALGPETASGSEGLWDNMSCD; cysteine pairing not given here)” was tested. Which “agonist activity (stimulation of cAMP accumulation)” value (secretin receptor; CHO-SecR cells) did it give?
Answer: weakly potent agonist

Question: What about the “effect on cAMP levels” value [1] of the same substance?
Answer: no effect

Question: And the “effect on cAMP levels” value [2]?
Answer: did not affect cAMP levels

Question: Which “agonist activity (stimulation of cAMP accumulation)” value (secretin receptor; CHO-SecR cells) does the source give for “GLP1R(63-70): polypeptide corresponding to amino acid residues 63 to 70 of the human GLP1R (NRTFDEYA; listed as Homo sapiens)” here?
Answer: active as an agonist

Question: And the “agonist activity (cAMP accumulation)” value (VPAC1 receptor)?
Answer: active as an agonist

Question: And the “agonist activity (cAMP accumulation)” value (human GLP1R)?
Answer: active as an agonist

Question: For “VPAC1(51-71): polypeptide corresponding to amino acids 51 to 71 of the rat VPAC1 receptor ([Dap]LEEAQLENETTGSSKMWDNLTD; not fully specified (bridges))”, which “agonist activity (cAMP accumulation)” value (VPAC1 receptor) is on record?
Answer: low potency agonist activity

Question: And the “agonist activity (cAMP accumulation)” value (human GLP1R)?
Answer: active as agonists

Question: What about the “activity at other structurally-related family members” value (Class B receptors) of the same substance?
Answer: also active

Question: For “myristoylated cyclic tripeptide: cyclic WDN polypeptide modified by fatty acid acylation (myristoyl group) ([Dap]WDND; lactam N-C; also: myristoyl group, site not given here)”, which “potency (cAMP accumulation), relative comparison” value (secretin receptor) is on record?
Answer: further enhanced
